Experimental data published in patent publication US20240270740A1, “INHIBITORS OF CYCLIC GMP-AMP SYNTHASE AND USES THEREOF” (Ventus Therapeutics U.S., Inc., priority 2022, published 2024).

Molecular target: hcGAS (Homo sapiens, UniProt Q8N884)
Experiment: hcGAS LCMS assay (direct measurement of cGAMP production)
Type: biochemical
Details: 0.5 nM hcGAS, 100 μM ATP, 100 μM GTP, 25 nM dsDNA, 4 h incubation
Method: cGAS catalyzes the cyclization of ATP and GTP to produce cGAMP, which is the activating ligand of STING. Human cGAS (hcGAS) inhibition can thus be quantified by measuring how much cGAMP is formed either indirectly, by monitoring ATP-depletion as in the hcGAS Kinase-Glo assay (as described below), or directly, such as using the hcGAS LCMS assay (as described below).
Compounds were tested for their h-cGAS inhibition activity using direct measurement of cGAMP production by LC/MS. Briefly, compounds were incubated with enzyme and substrates for 4 hours (see Table C), before the reaction was stopped with 3 volumes of 70/30 Acetonitrile/H2O mix containing 0.15 mM cGAMP-^13C10^5N5 as internal standard and mixed for […]. After centrifugation (3700 rpm, 10 min, 10° Celsius), […] of each reaction was collected and mixed to equal volume of Acetonitrile. Samples were then analyzed on Qexective (Column: XBridge BEH Amide Column, 130 Å, 3.5 μm, 3 mm×50 mm, Mobile phase A: 10 mM Ammonium acetate in 95/5% H2O/Acetonitrile (0.5% DMSO), Mobile phase B: Acetonitrile (0.5% DMSO).
The results of the assay, expressed as IC50 values, are reported in Table D with the following designations: A represents an IC50 value<0.005 μM; B represents an IC50 value≥0.005 μM and <0.02 μM, C represents an IC50 value≥0.02 μM and <0.06 μM; D represents an IC50 value≥0.06 and <0.2 μM; E represents an IC50 value≥0.2.

Chain of hcGAS (Q8N884 whole entry): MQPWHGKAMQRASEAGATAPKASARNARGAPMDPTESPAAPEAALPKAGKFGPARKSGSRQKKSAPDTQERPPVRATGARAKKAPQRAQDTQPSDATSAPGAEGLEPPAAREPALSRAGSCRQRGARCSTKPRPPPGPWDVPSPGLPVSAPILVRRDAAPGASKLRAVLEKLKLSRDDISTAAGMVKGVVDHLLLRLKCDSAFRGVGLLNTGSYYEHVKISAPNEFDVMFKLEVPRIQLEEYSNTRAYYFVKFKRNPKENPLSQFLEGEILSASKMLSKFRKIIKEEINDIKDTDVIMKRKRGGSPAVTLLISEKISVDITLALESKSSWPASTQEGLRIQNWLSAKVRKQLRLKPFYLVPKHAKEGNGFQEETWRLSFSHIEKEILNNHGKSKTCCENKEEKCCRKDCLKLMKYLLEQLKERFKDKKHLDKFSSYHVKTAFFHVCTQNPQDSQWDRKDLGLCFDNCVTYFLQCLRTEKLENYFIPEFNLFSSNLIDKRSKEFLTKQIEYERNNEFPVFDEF

Molecule	IC50 [nM]
4-(((1S,2R)-2-(hydroxymethyl)cyclopentyl)amino)-3-methoxy-N-(5-(5-methyl-1H-pyrazol-1-yl)-1,3,4-thiadiazol-2-yl)-2-oxo-2H-pyran-6-carboxamide [Rac-55]	≥ 200
COc1c(N[C@@H]2CCCCC[C@@H]2O)cc(C(=O)Nc2nnc(-n3nccc3C)s2)oc1=O (racemic) [Rac-26, 4-(((cis)-2-hydroxycycloheptyl)amino)-3-methoxy-N-(5-(5-methyl-1H-pyrazol-1-yl)-1,3,4-thiadiazol-2-yl)-2-oxo-2H-pyran-6-carboxamide]	< 5
COc1c(N[C@@H]2c3ccccc3C[C@@H]2O)cc(C(=O)Nc2nnc(-n3nccc3C)s2)oc1=O (racemic) [Rac-28, 4-(((cis)-2-hydroxy-2,3-dihydro-1H-inden-1-yl)amino)-3-methoxy-N-(5-(5-methyl-1H-pyrazol-1-yl)-1,3,4-thiadiazol-2-yl)-2-oxo-2H-pyran-6-carboxamide]	≥ 200
COc1c(NC2CCC23COC3)cc(C(=O)Nc2nnc(-n3nccc3C)s2)oc1=O (racemic) [Rac-56, 4-((2-oxaspiro[3.3]heptan-5-yl)amino)-3-methoxy-N-(5-(5-methyl-1H-pyrazol-1-yl)-1,3,4-thiadiazol-2-yl)-2-oxo-2H-pyran-6-carboxamide]	5 to 20
COc1c(N[C@@H]2Cc3ccccc3[C@@H]2O)cc(C(=O)Nc2nnc(-n3nccc3C)s2)oc1=O (racemic) [Rac-81, 4-(((1S,2R)-1-hydroxy-2,3-dihydro-1H-inden-2-yl)amino)-3-methoxy-N-(5-(5-methyl-1H-pyrazol-1-yl)-1,3,4-thiadiazol-2-yl)-2-oxo-2H-pyran-6-carboxamide]	≥ 200
COc1c(N(C)[C@@H]2CCC[C@@H]2OC)cc(C(=O)Nc2nnc(-n3nccc3C)s2)oc1=O (racemic) [Rac-153, 3-methoxy-4-(((cis)-2-methoxycyclopentyl)(methyl)amino)-N-(5-(5-methyl-1H-pyrazol-1-yl)-1,3,4-thiadiazol-2-yl)-2-oxo-2H-pyran-6-carboxamide]	5 to 20
COc1c(N(C)[C@@H]2CCC[C@@H]2O)cc(C(=O)Nc2nnc(-n3nccc3C)s2)oc1=O (racemic) [Rac-159, 4-(((cis)-2-hydroxycyclopentyl)(methyl)amino)-3-methoxy-N-(5-(5-methyl-1H-pyrazol-1-yl)-1,3,4-thiadiazol-2-yl)-2-oxo-2H-pyran-6-carboxamide]	5 to 20
COc1c(N[C@@H]2c3ccccc3C[C@@H]2OC)cc(C(=O)Nc2nnc(-n3nccc3C)s2)oc1=O (racemic) [Rac-164, 3-methoxy-4-(((1R,2S)-2-methoxy-2,3-dihydro-1H-inden-1-yl)amino)-N-(5-(5-methyl-1H-pyrazol-1-yl)-1,3,4-thiadiazol-2-yl)-2-oxo-2H-pyran-6-carboxamide]	5 to 20
COc1c(NC2CCCC2(C)O)cc(C(=O)Nc2nnc(-n3nccc3C)s2)oc1=O (racemic) [Rac-167, 4-((2-hydroxy-2-methylcyclopentyl)amino)-3-methoxy-N-(5-(5-methyl-1H-pyrazol-1-yl)-1,3,4-thiadiazol-2-yl)-2-oxo-2H-pyran-6-carboxamide]	< 5
COC[C@H]1CC[C@H](COC)N1c1cc(C(=O)Nc2nnc(-n3nccc3C)s2)oc(=O)c1OC (racemic) [Rac-209, 4-((trans)-2,5-bis(methoxymethyl)pyrrolidin-1-yl)-3-methoxy-N-(5-(5-methyl-1H-pyrazol-1-yl)-1,3,4-thiadiazol-2-yl)-2-oxo-2H-pyran-6-carboxamide]	5 to 20
COc1c(N[C@@H]2CCC[C@H]2OC)cc(C(=O)Nc2nnc(-n3nccc3C)s2)oc1=O (single isomer, unassigned) [3*]	< 5
COc1c(N[C@H]2CCC[C@@H]2OC)cc(C(=O)Nc2nnc(-n3nccc3C)s2)oc1=O (single isomer, unassigned) [4*]	5 to 20
COc1c(N[C@H]2CCC[C@H]2OC)cc(C(=O)Nc2nnc(-c3c(Cl)ccn3C)s2)oc1=O (single isomer, unassigned) [47*]	< 5
COc1c(N[C@@H]2CCC[C@@H]2OC)cc(C(=O)Nc2nnc(-c3c(Cl)ccn3C)s2)oc1=O (single isomer, unassigned) [48*]	5 to 20
COc1c(N[C@H]2CCN(C)C2=O)cc(C(=O)Nc2nnc(-n3nccc3C)s2)oc1=O (single isomer, unassigned) [71*]	5 to 20
COc1c(N[C@@H]2CCN(C)C2=O)cc(C(=O)Nc2nnc(-n3nccc3C)s2)oc1=O (single isomer, unassigned) [72*]	5 to 20
COc1c(N[C@@H]2CC[C@@H]2OC)cc(C(=O)Nc2nnc(-n3nccc3C)s2)oc1=O (single isomer, unassigned) [122*]	5 to 20
COc1c(N[C@H]2CC[C@H]2OC)cc(C(=O)Nc2nnc(-n3nccc3C)s2)oc1=O (single isomer, unassigned) [123*]	5 to 20
COc1c(N[C@H]2CC[C@@H](OC)C2)cc(C(=O)Nc2nnc(-n3nccc3C)s2)oc1=O (single isomer, unassigned) [124*]	5 to 20
COc1c(N[C@@H]2CC[C@H](OC)C2)cc(C(=O)Nc2nnc(-n3nccc3C)s2)oc1=O (single isomer, unassigned) [125*]	5 to 20
COc1c(N[C@H]2CC[C@H]2OCC(F)F)cc(C(=O)Nc2nnc(-n3nccc3C)s2)oc1=O (single isomer, unassigned) [172*]	5 to 20

Molecule	IC50 [nM]
COc1c(N[C@@H]2CC[C@@H]2OCC(F)F)cc(C(=O)Nc2nnc(-n3nccc3C)s2)oc1=O (single isomer, unassigned) [173*]	20 to 60
CC[C@H](COC)Nc1cc(C(=O)Nc2nnc(-n3nccc3C)s2)oc(=O)c1OC (single isomer, unassigned) [191*]	20 to 60
CC[C@@H](COC)Nc1cc(C(=O)Nc2nnc(-n3nccc3C)s2)oc(=O)c1OC (single isomer, unassigned) [192*]	5 to 20
COC[C@H](Nc1cc(C(=O)Nc2nnc(-n3nccc3C)s2)oc(=O)c1OC)c1ccccc1OC (single isomer, unassigned) [198*]	20 to 60
COC[C@@H](Nc1cc(C(=O)Nc2nnc(-n3nccc3C)s2)oc(=O)c1OC)c1ccccc1OC (single isomer, unassigned) [199*]	< 5
COc1c(N[C@H]2CCC[C@H]2OC)cc(C(=O)Nc2nnc(-n3nccc3C)s2)oc1=O (single isomer, unassigned) [214*]	5 to 20
COc1c(N[C@@H]2CCC[C@@H]2OC)cc(C(=O)Nc2nnc(-n3nccc3C)s2)oc1=O (single isomer, unassigned) [215*]	5 to 20
COC[C@H](Nc1cc(C(=O)Nc2nnc(-n3nccc3C)s2)oc(=O)c1OC)C1CC1 (single isomer, unassigned) [Compound 21*]	5 to 20
COC[C@@H](Nc1cc(C(=O)Nc2nnc(-n3nccc3C)s2)oc(=O)c1OC)C1CC1 (single isomer, unassigned) [Compound 22*]	< 5
COc1c(N[C@H]2CC[C@H]2O)cc(C(=O)Nc2nnc(-c3c(Cl)ccn3C)s2)oc1=O (single isomer, unassigned) [Compound 53]	< 5
COc1c(N[C@@H]2CC[C@@H]2O)cc(C(=O)Nc2nnc(-c3c(Cl)ccn3C)s2)oc1=O (single isomer, unassigned) [Compound 54]	< 5
COc1c(N[C@@H]2CCC[C@@H]2C#N)cc(C(=O)Nc2nnc(-n3nccc3C)s2)oc1=O (single isomer, unassigned) [Compound 73]	< 5
COc1c(N[C@H]2CCC[C@H]2C#N)cc(C(=O)Nc2nnc(-n3nccc3C)s2)oc1=O (single isomer, unassigned) [Compound 74]	< 5
COC[C@@H]1CCC[C@@H]1Nc1cc(C(=O)Nc2nnc(-n3nccc3C)s2)oc(=O)c1OC (single isomer, unassigned) [Compound 79*]	60 to 200
COC[C@H]1CCC[C@H]1Nc1cc(C(=O)Nc2nnc(-n3nccc3C)s2)oc(=O)c1OC (single isomer, unassigned) [Compound 80*]	≥ 200
COC[C@@]1(Nc2cc(C(=O)Nc3nnc(-n4nccc4C)s3)oc(=O)c2OC)CCOC1 (single isomer, unassigned) [Compound 100*]	5 to 20
COC[C@]1(Nc2cc(C(=O)Nc3nnc(-n4nccc4C)s3)oc(=O)c2OC)CCOC1 (single isomer, unassigned) [Compound 101*]	5 to 20
COc1c(N[C@@H]2CC[C@@H]2OC)cc(C(=O)Nc2nnc(-c3c(Cl)ccn3C)s2)oc1=O (single isomer, unassigned) [Compound 132*]	5 to 20
COc1c(N[C@H]2CC[C@H]2OC)cc(C(=O)Nc2nnc(-c3c(Cl)ccn3C)s2)oc1=O (single isomer, unassigned) [Compound 133*]	5 to 20
COCCN(CCO)c1cc(C(=O)Nc2nnc(-n3nccc3C)s2)oc(=O)c1OC (single isomer, unassigned) [Compound 157, 4-((2-hydroxyethyl)(2-methoxyethyl)amino)-3-methoxy-N-(5-(5-methyl-1H-pyrazol-1-yl)-1,3,4-thiadiazol-2-yl)-2-oxo-2H-pyran-6-carboxamide]	≥ 200
